Results reported in US9073853B2, “Cycloalkane carboxylic acid derivatives as CXCR3 receptor antagonists” (Sanofi, priority 2011, dated 2015).
Where a name gives a salt, the structure may show the parent alone.

Each molecule was assayed against human CXCR3-A receptor (Homo sapiens (Human), UniProt P49682) (assay: 125I-CXCL10 competition radioligand binding assay). Conditions: displacement of 125I-CXCL10 from membranes of CHO cells expressing human recombinant CXCR3-A.
Experimental: IC50 values were determined for the test compounds and used to explore the structure-activity relationships (SAR). […] This cell line was registered in Sanofi-Aventis cell line bank. […] Cell suspension was diluted with PBS and cells were collected with centrifugation at 230 g for 10 minutes at 10° C. with a Juan centrifuge. […] The supernatant was carefully collected and centrifuged at 100,000×g for 60 min at 4° with a Beckman Avanti J30 centrifuge. […] Protein concentration was determined with Bio-Rad protein assay (Cat No 500-0006). Membrane aliquots were stored at -80° C. […] The composition of the binding assay buffer was determined in a course of detailed optimization procedure. […] Binding reaction was initiated by adding of membranes (10-20 μg proteins, approximately 5×10^5 cell equivalents) to the reaction mixture. After 60 minutes of incubation at 25° C. the reaction was terminated by rapid filtration over GF/B glass fiber filters that were pre-soaked with 0.5% polyethyleneimine (Fluka Analytical, P3143) for 1 hour, using a Skatron cell harvester device. Filters then were washed with 8 ml of ice-cold wash buffer (modified binding buffer in which BSA was omitted and the concentration of NaCl was adjusted to 500 mM concentration). The radioactivity retained on the filters was measured by a Wizard 1470 Automatic Gamma counter. Test compounds were dissolved prior to the binding assay at a concentration of 10 mM in DMSO. Stock solutions were stored at -20° C. for not longer than 3 months. […] Before adding these solutions of test compound to the binding reaction mixture, an intermediate dilution procedure was applied, in which 30 μL of each solution sample was transferred into a dilution tube containing 970 μL of binding assay buffer. […] The IC50 values and Hill slopes for competition binding data were obtained using nonlinear four-parametric curve fitting method.

Sequence of human CXCR3-A receptor (P49682 whole entry): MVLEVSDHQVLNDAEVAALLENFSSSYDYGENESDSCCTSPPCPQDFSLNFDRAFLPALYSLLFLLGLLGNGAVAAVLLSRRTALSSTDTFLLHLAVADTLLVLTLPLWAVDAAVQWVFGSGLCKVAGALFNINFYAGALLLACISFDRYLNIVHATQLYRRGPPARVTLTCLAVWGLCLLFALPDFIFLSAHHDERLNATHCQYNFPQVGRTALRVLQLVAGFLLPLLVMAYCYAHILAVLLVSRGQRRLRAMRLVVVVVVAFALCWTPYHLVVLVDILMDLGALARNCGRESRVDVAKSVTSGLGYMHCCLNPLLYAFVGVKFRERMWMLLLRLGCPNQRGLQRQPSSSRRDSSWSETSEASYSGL

Structure (SMILES)	IC50
CCOC(=O)[C@H]1CC[C@H](CN(Cc2ccc(OCCN3C(=O)CCC3=O)c(OC)c2)C(C)c2ccc3c(c2)CCO3)CC1 (relative stereo) [Example 1.1, trans-4-[([1-(2,3-Dihydro-benzofuran-5-yl)-ethyl]-{4-[2-(2,5-dioxo-pyrrolidin-1-yl)-ethoxy]-3-methoxy-benzyl}-amino)-methyl]-cyclohexanecarboxylic acid ethyl ester]	0.177 µM
COc1cc(CN(C[C@H]2CC[C@H](C(=O)O)CC2)C2CCc3cc(Cl)ccc32)ccc1CCCN1C(=O)CCC1=O (stereo in doubt) [Example 45, trans-4-[(((R)-5-Chloro-indan-1-yl)-{4-[3-(2,5-dioxo-pyrrolidin-1-yl)-propyl]-3-methoxy-benzyl}-amino)-methyl]-cyclohexanecarboxylic acid]	0.16 µM
COc1cc(CN(C[C@H]2CC[C@H](C(=O)O)CC2)C2CCc3cc(Cl)ccc32)ccc1CCCN1C(=O)CCC1=O (stereo in doubt) [Example 46, trans-4-[(((S)-5-Chloro-indan-1-yl)-{4-[3-(2,5-dioxo-pyrrolidin-1-yl)-propyl]-3-methoxy-benzyl}-amino)-methyl]-cyclohexanecarboxylic acid]	1 µM
COc1cc(CN(C[C@H]2CC[C@H](C(=O)O)CC2)[C@@H](C)c2ccc(Cl)cc2)ccc1OCCN1C(=O)CCC1=O [Example 5, trans-4-[([(S)-1-(4-Chloro-phenyl)-ethyl]-{4-[2-(2,5-dioxo-pyrrolidin-1-yl)-ethoxy]-3-methoxy-benzyl}-amino)-methyl]-cyclohexanecarboxylic acid]	0.019 µM
COc1cc(CN(C[C@H]2CC[C@H](C(=O)O)CC2)[C@H](C)c2ccc(Cl)cc2)ccc1OCCN1C(=O)CCC1=O [Example 6, trans-4-[([(R)-1-(4-Chloro-phenyl)-ethyl]-{4-[2-(2,5-dioxo-pyrrolidin-1-yl)-ethoxy]-3-methoxy-benzyl}-amino)-methyl]-cyclohexanecarboxylic acid]	0.02 µM
Cc1cc(CN(C[C@H]2CC[C@H](C(=O)O)CC2)[C@@H](C)c2ccc(Cl)cc2)ccc1OCCN1C(=O)CCC1=O [Example 7, trans-4-[([(S)-1-(4-Chloro-phenyl)-ethyl]-{4-[2-(2,5-dioxo-pyrrolidin-1-yl)-ethoxy]-3-methyl-benzyl}-amino)-methyl]-cyclohexanecarboxylic acid]	0.038 µM
Cc1cc(CN(C[C@H]2CC[C@@H](C(=O)O)CC2)[C@@H](C)c2ccc(Cl)cc2)ccc1OCCN1C(=O)CCC1=O [Example 8, cis-4-[([(S)-1-(4-Chloro-phenyl)-ethyl]-{4-[2-(2,5-dioxo-pyrrolidin-1-yl)-ethoxy]-3-methyl-benzyl}-amino)-methyl]-cyclohexanecarboxylic acid]	3.81 µM
Cc1cc(CN(C[C@H]2CC[C@H](C(=O)O)CC2)[C@H](C)c2ccc(Cl)cc2)ccc1OCCN1C(=O)CCC1=O [Example 9, trans-4-[([(R)-1-(4-Chloro-phenyl)-ethyl]-{4-[2-(2,5-dioxo-pyrrolidin-1-yl)-ethoxy]-3-methyl-benzyl}-amino)-methyl]-cyclohexanecarboxylic acid]	0.032 µM
COc1cc(CN(C[C@H]2CC[C@H](C(=O)O)CC2)C2CCc3cc(Cl)ccc32)ccc1OCCN1C(=O)CCC1=O (stereo partly drawn) [Example 10, trans-4-[((5-Chloro-indan-1-yl)-{4-[2-(2,5-dioxo-pyrrolidin-1-yl)-ethoxy]-3-methoxy-benzyl}-amino)-methyl]-cyclohexane-carboxylic acid]	0.064 µM
COc1cc(CN(C[C@H]2CC[C@H](C(=O)O)CC2)[C@@H]2CCc3cc(Cl)ccc32)ccc1OCCN1C(=O)CCC1=O [Example 11, trans-4-[(((R)-5-Chloro-indan-1-yl)-{4-[2-(2,5-dioxo-pyrrolidin-1-yl)-ethoxy]-3-methoxy-benzyl}-amino)-methyl]cyclohexanecarboxylic acid]	0.2 µM
COc1cc(CN(C[C@H]2CC[C@H](C(=O)O)CC2)[C@H]2CCc3cc(Cl)ccc32)ccc1OCCN1C(=O)CCC1=O [Example 12, trans-4-[(((S)-5-Chloro-indan-1-yl)-{4-[2-(2,5-dioxo-pyrrolidin-1-yl)-ethoxy]-3-methoxy-benzyl}-amino)-methyl]-cyclohexanecarboxylic acid]	0.013 µM
COc1cc(CN(C[C@H]2CC[C@@H](C(=O)O)CC2)C2CCc3cc(Cl)ccc32)ccc1OCCN1C(=O)CCC1=O (stereo partly drawn) [Example 13, cis-4-[((5-Chloro-indan-1-yl)-{4-[2-(2,5-dioxo-pyrrolidin-1-yl)-ethoxy]-3-methoxy-benzyl}-amino)-methyl]-cyclohexane-carboxylic acid]	1.66 µM
COc1cc(CN(C[C@H]2CC[C@H](C(=O)O)CC2)[C@H]2CCc3c2ccc(Cl)c3Cl)ccc1OCCN1C(=O)CCC1=O [Example 14, trans-4-[(((S)-4,5-Dichloro-indan-1-yl)-{4-[2-(2,5-dioxo-pyrrolidin-1-yl)-ethoxy]-3-methoxy-benzyl}-amino)-methyl]-cyclohexanecarboxylic acid hydrochloride]	0.025 µM
COc1cc(CN(C[C@H]2CC[C@H](C(=O)O)CC2)C(C)c2ccc3c(c2)CCO3)ccc1OCCN1C(=O)CSC1=O (stereo partly drawn) [Example 15, trans-4-[([1-(2,3-Dihydro-benzofuran-5-yl)-ethyl]-{4-[2-(2,4-dioxo-thiazolidin-3-yl)-ethoxy]-3-methoxy-benzyl}-amino)-methyl]-cyclohexanecarboxylic acid]	0.037 µM
CC(c1ccc2c(c1)CCO2)N(Cc1ccc(OCCN2C(=O)CCC2=O)c(Cl)c1)C[C@H]1CC[C@H](C(=O)O)CC1 (stereo partly drawn) [Example 16, trans-4-({{3-Chloro-4-[2-(2,5-dioxo-pyrrolidin-1-yl)-ethoxy]-benzyl}-[1-(2,3-dihydro-benzofuran-5-yl)-ethyl]-amino}-methyl)-cyclohexanecarboxylic acid]	0.035 µM
Cc1cc(CN(C[C@H]2CC[C@H](C(=O)O)CC2)C(C)c2ccc3c(c2)CCO3)ccc1OCCN1C(=O)CCC1=O (stereo partly drawn) [Example 17, trans-4-[([1-(2,3-Dihydro-benzofuran-5-yl)-ethyl]-{4-[2-(2,5-dioxo-pyrrolidin-1-yl)-ethoxy]-3-methyl-benzyl}-amino)-methyl]-cyclohexanecarboxylic acid]	0.044 µM
CCC(c1ccc2c(c1)CCO2)N(Cc1ccc(OCCN2C(=O)CCC2=O)c(OC)c1)C[C@H]1CC[C@H](C(=O)O)CC1 (stereo partly drawn) [Example 18, trans-4-[([1-(2,3-Dihydro-benzofuran-5-yl)-propyl]-{4-[2-(2,5-dioxo-pyrrolidin-1-yl)-ethoxy]-3-methoxy-benzyl}-amino)-methyl]-cyclohexanecarboxylic acid]	0.064 µM
COc1cc(CN(C[C@H]2CC[C@H](C(=O)O)CC2)C(C)c2ccc3c(c2)CCO3)ccc1OCCN1C(=O)COC1=O (stereo partly drawn) [Example 19, trans-4-[([1-(2,3-Dihydro-benzofuran-5-yl)-ethyl]-{4-[2-(2,4-dioxo-oxazolidin-3-yl)-ethoxy]-3-methoxy-benzyl}-amino)-methyl]-cyclohexanecarboxylic acid]	0.055 µM
O=C1CCC(=O)N1CCOc1ccc(CN(C[C@H]2CC[C@H](C(=O)O)CC2)C2CCc3cc(Cl)ccc32)cc1Cl (stereo partly drawn) [Example 21, trans-4-{[{3-Chloro-4-[2-(2,5-dioxo-pyrrolidin-1-yl)-ethoxy]-benzyl}-(5-chloro-indan-1-yl)-amino]-methyl}-cyclohexanecarboxylic acid]	0.633 µM
